Patent US20220088155A1, “SUBCONJUNCTIVAL CHEMOTHERAPEUTIC DELIVERY BY FIBRIN SEALANT IN THE TREATMENT OF RETINOBLASTOMA” (BAXTER INTERNATIONALINC., priority 2019, published 2022)
pIC50: −log10 of the molar value. Like-named read-outs stand apart in the source and are kept apart here.

Assays:
Y79 retinoblastoma cells = assay: Cell viability assay (resazurin/Alamar Blue), Y79; type: cell-based, human; details: single drug, read-out: Standalone IC50
Description: (§1) The human retinoblastoma Y79 (ATCC® HTB18™) and WERI (ATCC® HTB169™) cell lines were cultured in RPMI 1640 (ATCC®) medium supplemented with 20% (Y79) or 10% (WERI-RB) fetal bovine serum, 100 U/mL penicillin, and […] streptomycin in a humidified atmosphere of 5% CO2 at 37° C., grown in 75 cm^2 tissue culture flasks. Once confluent, cells were sub cultivated with fresh medium 1:2 to 1:4 ratios after discarding the supernatant and obtaining the gravity-settled aggregates.
(§2) 10 mL of cell suspension were centrifuged at 1000 G for 10 minutes. The supernatant was discarded and the pellet was then resuspended in media to 1.1*10^5 live cells/mL following a viability cell count check. Cells were plated in 96-well plates at 10,000 cells per well. Sample wells were treated with carboplatin, etoposide or vincristine at the concentrations of 1000 uM, 100 uM, 50 uM, 10 uM, 5 uM, 1 uM, 0.5 uM, and 0.1 uM. Untreated and non-cell controls include a 10 uL vehicle, bringing up all wells to 100 uL total volume. Experiments covered 24/48/72 hour incubations at 5% CO2 at 37° C. prior to analyses. Plates ready for analysis were incubated with 10 uL of 10× Alamar Blue Reagent for 1-4 hours (apparent color change) and emission intensity read at 585 nm following a 555 nm excitation.
(§3) Y79 and WERI cells were incubated with Vincristine, Etoposide, or Carboplatin using previously established half-maximal inhibitory concentrations in a fixed-ratio treatment paradigm. Y79 and WERI cells also were incubated with a mixture of Vincristine, Etoposide, or Carboplatin.

[1] = tested on: WERI retinoblastoma cells; assay: Cell viability assay (resazurin/Alamar Blue), WERI; type: cell-based, human; details: single drug, read-out: Standalone IC50
Description: as §1, §2, §3

TISSEEL fibrin sealant = target: T1, TISSEEL fibrin sealant (Homo sapiens, UniProt P02671+P02675+P02679); assay: Scanning electron microscopy branching analysis of drug-embedded fibrin sealant; details: fibrin sealant admixed with 1 mM drug, SEM 5,000x, ImageJ skeleton analysis
T1 construct: purchased
T1 sequence (P02671 20-644 isoform P02671-2 limits assumed): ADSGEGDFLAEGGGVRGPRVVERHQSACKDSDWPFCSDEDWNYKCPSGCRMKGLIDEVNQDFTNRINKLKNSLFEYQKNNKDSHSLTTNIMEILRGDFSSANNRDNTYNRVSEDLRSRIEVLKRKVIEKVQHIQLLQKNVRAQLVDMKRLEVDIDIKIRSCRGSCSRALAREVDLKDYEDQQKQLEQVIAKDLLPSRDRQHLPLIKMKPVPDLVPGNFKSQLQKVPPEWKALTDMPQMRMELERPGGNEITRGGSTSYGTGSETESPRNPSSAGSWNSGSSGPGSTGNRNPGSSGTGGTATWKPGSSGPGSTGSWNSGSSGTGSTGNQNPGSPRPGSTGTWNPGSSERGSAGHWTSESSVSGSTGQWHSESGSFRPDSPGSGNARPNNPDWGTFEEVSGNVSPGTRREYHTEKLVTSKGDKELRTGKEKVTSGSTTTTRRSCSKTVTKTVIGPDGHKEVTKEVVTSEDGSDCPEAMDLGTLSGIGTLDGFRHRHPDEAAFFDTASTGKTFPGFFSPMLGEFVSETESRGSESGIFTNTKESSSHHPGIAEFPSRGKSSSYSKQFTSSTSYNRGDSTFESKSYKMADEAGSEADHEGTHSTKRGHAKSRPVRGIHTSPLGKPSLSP
T1 sequence (P02675 45-491 limits assumed): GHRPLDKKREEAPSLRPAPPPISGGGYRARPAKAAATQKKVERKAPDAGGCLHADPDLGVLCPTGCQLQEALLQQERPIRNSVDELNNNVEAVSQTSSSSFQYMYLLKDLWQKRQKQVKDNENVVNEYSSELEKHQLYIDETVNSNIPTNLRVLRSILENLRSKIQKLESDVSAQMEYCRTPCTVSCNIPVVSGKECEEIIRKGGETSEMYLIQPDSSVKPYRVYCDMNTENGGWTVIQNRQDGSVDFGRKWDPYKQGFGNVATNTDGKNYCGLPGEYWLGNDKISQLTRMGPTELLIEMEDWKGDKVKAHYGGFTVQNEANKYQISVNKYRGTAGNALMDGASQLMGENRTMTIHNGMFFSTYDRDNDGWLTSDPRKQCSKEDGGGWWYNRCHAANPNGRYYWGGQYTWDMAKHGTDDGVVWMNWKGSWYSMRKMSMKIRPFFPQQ
T1 sequence (P02679 27-437 isoform P02679-2 limits assumed): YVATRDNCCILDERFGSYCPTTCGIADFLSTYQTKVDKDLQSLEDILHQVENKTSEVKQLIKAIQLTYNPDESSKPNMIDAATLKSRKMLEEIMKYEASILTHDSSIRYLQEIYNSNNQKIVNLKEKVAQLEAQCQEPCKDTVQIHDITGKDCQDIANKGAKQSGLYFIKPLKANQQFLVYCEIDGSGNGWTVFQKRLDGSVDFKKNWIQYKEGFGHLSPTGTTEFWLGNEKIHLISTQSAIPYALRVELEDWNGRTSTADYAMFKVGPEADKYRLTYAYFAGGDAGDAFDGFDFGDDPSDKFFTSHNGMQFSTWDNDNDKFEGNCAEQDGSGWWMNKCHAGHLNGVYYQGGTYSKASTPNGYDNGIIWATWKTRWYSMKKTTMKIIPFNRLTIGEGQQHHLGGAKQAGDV
Description: FIGS. 8A to 8D depict fiber analysis of VEC-embedded fibrin sealant. Commercially available fibrin sealant was admixed with 1 mM additions of Vincristine, Etoposide, or Carboplatin. Samples were critically point dried and imaged by scanning electron microscopy at 5,000× magnification at various points around the samples. Images were uploaded into ImageJ for fiber analysis. […] In FIG. 8B, the images were binarized to 8-bit grayscale. In FIG. 8C, the binarized image was skeletonized to produce a representation of the fiber network. The Analyze Skeleton function was used to quantify fiber branches and junctions. […] Images analysed were taken at 5,000× magnificent and compared over a 800×800 pixel area. TISSEEL™ or TISSEEL™ admixed with chemotherapeutic drug (1 mM final concentration) was prepared according to the IFU. In short, 2 mM additions of chemotherapy were transferred via syringe and needle to the thrombin vial (500 IU/mL thrombin) during preparation and placed in a Fibrinotherm to spin and heat the mixtures to 37 degrees celsius. Following complete dissolution of both thrombin and fibrinogen solutions, each solution was pulled up into respective syringes and loaded in the Duploject spray system accompanying the kit. The 1 mL volumes of thrombin and fibrinogen (2 mL total) were sprayed onto collagen casing. Immediately following coagulation (˜30 seconds), the samples were washed 3× in cacodylate buffer for 10 minutes and fixed in 2% glutaraldehyde buffer (Electron Microscopy Sciences). Fixed clots were washed, serially dehydrated with ethanol, and dried with hexamethyldisilizane (Electron Microscopy Sciences). Clots were allowed to air dry overnight thereafter. Clots were then teased apart with forceps and mounted on aluminum sample supports with carbon adhesive tape. Samples were sputter coated with 20 nm iridium metal in a Leica ACE600 and analyzed by scanning electron microscopy (FEI Quanta 650 FEG). Branching analysis was performed using 2D images cross-sectional cuts of fibrin clots. Representative images and sections displaying easily discernible fibrin branching characteristics were selected from each group. Images were processed using ImageJ's skeleton analysis function. In short, images were first binarized to delineate the image further into branch and background sections. Binary images were then placed through the Analyze Skeleton (2D/3D) function with no pruning or selected parameters. The output file included details such as branch lengths, branch numbers, and number of junctions.

| Avg Branch length (TISSEEL fibrin sealant) [nm] | Branch/Junction Ratio (TISSEEL fibrin sealant) | Junctions (TISSEEL fibrin sealant) | Max Branch Number (TISSEEL fibrin sealant) | pIC50 (Y79 retinoblastoma cells; Homo sapiens) | pIC50 ([1]; Homo sapiens) | SMILES | pIC50 (Y79 retinoblastoma cells) | pIC50 [1] |
| --- | --- | --- | --- | --- | --- | --- | --- | --- |
| 21 | 66.2 | 125 +/− 2.1 | 8272 +/− 140 | 5.22 | 5.57 | COc1cc([C@@H]2c3cc4c(cc3[C@@H](O[C@@H]3O[C@@H]5CO[C@@H](C)O[C@H]5[C@H](O)[C@H]3O)[C@H]3COC(=O)[C@H]23)OCO4)cc(OC)c1O [Etoposide] | – | – |
| 22 | 55.7 | 136 +/− 2.3 | 7580 +/− 125 | 7.00 | 5.54 | CC[C@]1(O)C[C@H]2CN(CCc3c([nH]c4ccccc34)[C@@](C(=O)OC)(c3cc4c(cc3OC)N(C=O)[C@H]3[C@@](O)(C(=O)OC)[C@H](OC(C)=O)[C@]5(CC)C=CCN6CC[C@]43[C@@H]65)C2)C1 [Vincristine] | – | – |

| SMILES | Avg Branch length (TISSEEL fibrin sealant) [nm] | Branch/Junction Ratio (TISSEEL fibrin sealant) | Junctions (TISSEEL fibrin sealant) | Max Branch Number (TISSEEL fibrin sealant) | pIC50 (Y79 retinoblastoma cells; Homo sapiens) | pIC50 ([1]; Homo sapiens) | pIC50 (Y79 retinoblastoma cells) | pIC50 [1] |
| --- | --- | --- | --- | --- | --- | --- | --- | --- |
| N.N.O=C([O-])C1(C(=O)[O-])CCC1.[Pt+2] [Carboplatin] | 19 | 68.0 | 148 +/− 2.6 | 10065 +/− 142 | – | – | 5.96 | 6.00 |
